Test results taken from ChEMBL document CHEMBL1909046, “DrugMatrix in vitro pharmacology data”.

Assays:
[1] = molecular target: T1, Cytochrome P450 1A2 (Homo sapiens, UniProt P05177)
T1 sequence (P05177 whole entry): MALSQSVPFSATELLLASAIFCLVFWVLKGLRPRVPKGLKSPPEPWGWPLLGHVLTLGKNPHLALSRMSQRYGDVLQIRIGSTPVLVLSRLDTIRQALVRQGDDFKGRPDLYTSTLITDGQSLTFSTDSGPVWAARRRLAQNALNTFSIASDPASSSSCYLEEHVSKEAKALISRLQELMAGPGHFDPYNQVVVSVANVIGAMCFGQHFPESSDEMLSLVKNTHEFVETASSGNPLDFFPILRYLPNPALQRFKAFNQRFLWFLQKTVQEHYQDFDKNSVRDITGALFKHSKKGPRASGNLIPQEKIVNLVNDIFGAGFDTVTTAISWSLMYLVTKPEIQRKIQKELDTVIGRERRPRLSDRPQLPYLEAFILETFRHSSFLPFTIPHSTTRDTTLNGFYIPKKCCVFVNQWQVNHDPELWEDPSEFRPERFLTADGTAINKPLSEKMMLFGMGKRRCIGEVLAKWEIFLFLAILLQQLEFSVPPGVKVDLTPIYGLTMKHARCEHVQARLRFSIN

[2] = molecular target: T2, Estrogen receptor (Homo sapiens, UniProt P03372); assay: biochemical
T2 sequence (P03372 whole entry): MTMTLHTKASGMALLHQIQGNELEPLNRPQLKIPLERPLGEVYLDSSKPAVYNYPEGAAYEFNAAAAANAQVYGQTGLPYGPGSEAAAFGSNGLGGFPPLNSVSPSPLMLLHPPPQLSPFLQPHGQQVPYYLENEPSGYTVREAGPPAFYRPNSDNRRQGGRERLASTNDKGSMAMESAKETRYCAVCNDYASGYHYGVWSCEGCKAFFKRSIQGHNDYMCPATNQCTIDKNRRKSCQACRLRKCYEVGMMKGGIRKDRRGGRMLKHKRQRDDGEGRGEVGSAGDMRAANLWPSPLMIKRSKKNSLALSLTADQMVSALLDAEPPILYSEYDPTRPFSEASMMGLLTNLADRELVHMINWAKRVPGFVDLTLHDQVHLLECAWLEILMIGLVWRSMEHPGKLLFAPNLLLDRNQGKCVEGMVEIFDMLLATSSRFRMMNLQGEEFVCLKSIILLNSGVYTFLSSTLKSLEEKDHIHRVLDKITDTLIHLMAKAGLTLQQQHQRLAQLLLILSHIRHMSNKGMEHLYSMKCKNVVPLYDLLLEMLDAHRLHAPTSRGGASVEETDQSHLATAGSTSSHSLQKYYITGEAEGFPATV

[3] = molecular target: Cytochrome P450 3A4 (Homo sapiens, UniProt P08684)
Sequence of Cytochrome P450 3A4 (P08684 whole entry): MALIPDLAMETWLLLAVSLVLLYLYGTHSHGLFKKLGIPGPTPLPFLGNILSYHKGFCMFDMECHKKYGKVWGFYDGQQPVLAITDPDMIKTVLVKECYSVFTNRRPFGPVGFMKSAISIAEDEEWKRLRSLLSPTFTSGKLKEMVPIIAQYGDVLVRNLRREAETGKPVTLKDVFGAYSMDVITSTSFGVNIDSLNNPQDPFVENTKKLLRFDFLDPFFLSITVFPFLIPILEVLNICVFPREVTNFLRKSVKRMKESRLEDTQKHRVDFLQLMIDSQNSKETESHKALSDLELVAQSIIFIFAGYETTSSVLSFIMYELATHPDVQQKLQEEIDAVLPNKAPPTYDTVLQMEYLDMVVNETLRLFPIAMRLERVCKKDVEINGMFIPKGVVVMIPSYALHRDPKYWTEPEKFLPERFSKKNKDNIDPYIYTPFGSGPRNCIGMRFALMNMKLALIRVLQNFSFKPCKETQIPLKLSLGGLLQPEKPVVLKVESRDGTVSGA

Compound | IC50 [1] [nM] | IC50 [2] [nM] | Ki [2] [nM] | IC50 [3] [nM]
S=C=Nc1cccc2ccccc12 [1-NAPHTHYLISOTHIOCYANATE] | 1000 |  |  | 
C[C@]12CC[C@@H]3c4ccc(OC(=O)c5ccccc5)cc4CC[C@H]3[C@@H]1CC[C@@H]2O [ESTRADIOL BENZOATE] |  | 65 | 18 | 
C#C[C@]1(O)CC[C@H]2[C@@H]3CCc4cc(OC)ccc4[C@H]3CC[C@@]21C [MESTRANOL] |  | 18 | 5.22 | 
CC(=O)Nc1cccc(O)c1 [METACETAMOL] | 2000 |  |  | 
CC(C)(C(=O)c1cccnc1)c1cccnc1 [METYRAPONE] |  |  |  | 800
